Each structure is given as a SMILES string. Residues, ends and D or L forms follow the SMILES beside them. *: point of attachment. Cbz = O=C(OCc1ccccc1)*; CH2F = FC*

The subject of data set [1] is DCIR expression in CD4+ T cells. The data set is described as follows: HIV-1-mediated induction of DCIR expression in CD4+ T cells (flow cytometry). Particulars: for HIV-1-mediated DCIR expression: cells pre-treated before virus infection, 3 days, result in words. In kind it is cell-based, human. The procedure: Mitogen-activated CD4^+ T cells (1×10^6) were first either left untreated or treated for 1 h with the caspase inhibitor Z-VAD-FMK (50 nM), after which HIV-1 was added (100 ng of p24), where indicated. DCIR expression was monitored 3 days later by flow cytometry. Data shown represent the means±SD of triplicate samples from three independent experiments.
Cells (1×10^6) were first either left untreated or treated for 1 h with NAC, after which HIV-1 (100 ng of p24) was added. DCIR expression was monitored 3 days later by flow cytometry. Expression of DCIR is shown as a dotted line, whereas the continuous line represents staining obtained with an isotype-matched irrelevant control Ab. Data shown correspond to a single experiment representative of 3 independent experiments.
Cell surface expression of DCIR was monitored by flow cytometric analysis (Epics ELITE ESP, Coulter Electronics, Burlington, Canada). Cells (1×10^6 cells) were incubated for 30 min with a pool of human serum to block the unspecific binding. After washing, the cells were incubated with PE-labeled anti-DCIR (0.25 μg) for 45 min at 4° C. and then washed twice with PBS and 0.5% BSA. Non-specific staining was determined by using an isotype-matched irrelevant control antibody. After two final washes with PBS, cells were fixed in 2% paraformaldehyde for 30 min and analyzed.
In general terms: In flow cytometry, cells or beads pass a laser one at a time.

Data set [2] shares this test system. The data set is described as follows: DCIR expression in CD4+ T cells after H2O2 or other apoptosis inducers (flow cytometry). It counts as cell-based, human. The protocol:
Next, DCIR expression was assessed by flow cytometry. Data shown represent the ratio of DCIR expression over basal expression. The ratio is calculated from the means±SD of triplicate samples from three independent experiments. […] FIG. 16A: […] Expression of DCIR is shown as a dotted line, whereas the continuous line represents staining obtained with an isotype-matched irrelevant control Ab. Data shown correspond to a single experiment representative of 3 independent experiments. FIG. 16B: […] Thereafter, DCIR surface expression and caspase activation were monitored by flow cytometric analysis using a double-staining method consisting of FITC-VAD-FMK followed by the R-PE-conjugated anti-DCIR. Data shown correspond to a single experiment representative of 4 independent experiments. Cell surface expression of DCIR was monitored by flow cytometric analysis (Epics ELITE ESP, Coulter Electronics, Burlington, Canada). […] After washing, the cells were incubated with PE-labeled anti-DCIR (0.25 μg) for 45 min at 4° C. and then washed twice with PBS and 0.5% BSA. Non-specific staining was determined by using an isotype-matched irrelevant control antibody. After two final washes with PBS, cells were fixed in 2% paraformaldehyde for 30 min and analyzed.

Data set [3] has as its system CD4+ T cells. The data set is described as follows: Cell toxicity / viability of CD4+ T cells. The settings on record: HIV-1-infected CD4+ T cells; data not shown. In kind it is cell-based, human.
Data set [4] relates to HIV-1 NL4-3 in Raji-CD4-DCIR cells. The data set is described as follows: HIV-1 binding/entry assay in Raji-CD4-DCIR cells (cell-associated p24 ELISA). Particulars: cells pretreated with inhibitor 10 min, pulsed with NL4-3 60 min; result in words. In kind it is cell-based. The procedure: FIG. 2A: Raji-CD4 and Raji-CD4-DCIR cells were either left untreated or treated with SSG (100 μg/ml) for 10 min at 37° C. Thereafter, cells were pulsed with NL4-3 for 60 min. After three washes with PBS to remove non-adsorbed virus, cell-associated virus was quantified by measuring the p24 content. Data shown correspond to the means±SD of triplicate samples from three combined independent experiments. The asterisk denotes statistically significant data (*, P<0.05; **, P<0.01). FIG. 2B: Cells were either left untransfected or transfected with a sense or antisense oligonucleotide specific for the signalling protein of interest. Next, cells were pulsed with NL4-3 for 60 min. After three washes with PBS to eliminate unbound virus, cell-associated virus was quantified by measuring the p24 content. Data shown correspond to the means±SD of triplicate samples from three combined independent experiments. The asterisk denotes statistically significant data (*, P<0.05; **, P<0.01). After gene silencing, the diminution of the targeted protein was verified by western blots, provided as an insert for each graph.
Where indicated, parental Raji-CD4 cells (DCIR-negative) or Raji-CD4-DCIR transfectants (1×10^6) were pretreated with the indicated amount of a pharmacological inhibitor for 10 min or transfected with sense or antisense oligonucleotides as described below. Cells were then pulsed with NL4-3 (100 ng of p24) for 60 min at 37° C. Next the virus-cell mixture was washed 3 times with PBS to remove unbound virus and resuspended in PBS containing 1% BSA. To assess binding/entry, the p24 content was determined by our in-house ELISA assay^33.
Raji-CD4 and Raji-CD4-DCIR cells (1×10^6 cells) were washed with OptiMEM (Invitrogen Life Technologies) without serum and antibiotics. The phosphorothioate oligodeoxynucleotides (Listed in Table 1) (Invitrogen Life Technologies) were transfected at a final concentration of 10 μM/well^35 using Oligofectamine according to the manufacturer's instructions (Invitrogen Life Technologies). Silencing efficiency was monitored by western blot analysis.

With `COC(=O)CC(NC(=O)C(C)NC(=O)C(NC(=O)OCc1ccccc1)C(C)C)C(=O)CF` (stereo not drawn) [Z-VAD-FMK, Benzyloxycarbonyl-Val-Ala-Asp (OMe) fluoromethylketone] (Cbz-Val-Ala-Asp(OMe)-CH2F; configuration not given here), the “HIV-1-mediated DCIR expression” value in data set [1] is “partially reduced”. Also, the “DCIR expression in activated CD4+ T cells” value in data set [2] (cells treated with both H2O2 (30 μM) and Z-VAD-FMK (50 nM, 1 h pretreatment), n=3) came out at 1.0±0.2%. Besides, in data set [2] (pretreatment with Z-VAD-FMK, result in words), the “DCIR expression after H2O2 stimulation” value is “prevented”. For the same molecule, the cell toxicity entry in data set [3] is “no toxicity”.

`CN[C@@H]1C[C@H]2O[C@@](C)([C@@H]1OC)n1c3ccccc3c3c4c(c5c6ccccc6n2c5c31)C(=O)NC4` [staurosporine]: in data set [2] (CD4+ T cells treated with inducer, H2O2 20 to 60 μM, result in words), the DCIR expression result was “promoted”.

With `Cn1c2ccccc2c2c3c(c4c5ccccc5n(CCC#N)c4c21)CNC3=O` [Go6976], the HIV-1 binding/entry entry in data set [4] is “play a role”.

Take `C[S+]([O-])c1ccc(-c2nc(-c3ccncc3)c(-c3ccc(F)cc3)[nH]2)cc1` (centres unmarked) [SB203580]: the HIV-1 binding/entry result in data set [4] was “significant decrease”.

Turning to `COc1cccc(-c2cc(=O)c3ccccc3o2)c1N` [PD98059], the HIV-1 binding/entry entry in data set [4] is “significant decrease”.

Regarding `CC(C)(C)n1nc(-c2ccc(Cl)cc2)c2c(N)ncnc21` [PP2], the HIV-1 binding/entry result in data set [4] was “decreased”.

Regarding `C(=C\c1ccccc1)/c1ccccc1` [trans-stilbene], in data set [4], the HIV-1 binding/entry result is “inability of the inactive analog trans-stilbene to induce a comparable decrease”.

On to `Oc1cc(O)cc(/C=C/c2ccc(O)c(O)c2)c1` [Pic, piceatannol], for which, in data set [4], the HIV-1 binding/entry entry is recorded as “significantly decreases”.

Regarding `CC(=O)N[C@@H](CS)C(=O)O` [NAC, N-acetyl-L-cystein], the “HIV-1-mediated DCIR expression” value in data set [1] was “inhibited but not completely”. Further, in data set [1] (virus-infected cells also treated with NAC, n=3, 16.2±3.4% in HIV-1-infected cells without NAC), the “HIV-1-induced expression of DCIR on the surface of CD4+ T cells” value is listed as 6.7±1.7%. For the same molecule, the cell toxicity entry in data set [3] is on record as “no toxicity”.

The values above are taken from US9320773B2, “Compounds and therapeutic applications related to inhibition of dendritic cell immunoreceptor (DCIR) activity and signaling events” (priority 2010, dated 2016).
